Here are results for 1 molecule from patent publication US7105492B2, “Camptothecin derivatives having antitumor activity” (priority 1999, dated 2006).

Data set [1] in a line: Water solubility (remark in Table 4). Type of data set: physicochemical.
Data set [2] concerns MKN-28 human gastric carcinoma. As to the kind of experiment: ST 1737 per os in athymic nude mice bearing s.c. MKN-28 human gastric carcinoma. Type of data set: in vivo. Conditions: q4d × 4; for TVI % (tumor volume inhibition % in treated over control tumors): at 11–12 day after last treatment.
The subject of data set [3] is NCI H460 lung non-small cell carcinoma. Description: Antiproliferative activity test (cytotoxic activity) on NCI H460 cells. Type of data set: cell-based, human. Conditions: H-460. As for the experimental part: Cytotoxic activity of the compounds of the present invention was assayed in cell systems of human tumour cells, using the antiproliferative activity test as a method of evaluation of the cytotoxic potential.
The cell line used is a lung non-small cell carcinoma that belongs to non-small cells hystotype named NCI H460.

On to `CC[C@@]1(O)C(=O)OCc2c1cc1n(c2=O)Cc2c-1nc1ccccc1c2C=Nc1ccccc1SSc1ccccc1N` [ST 1737, 7–2-(2-aminophenyldithio)phenyliminomethylcamptothecin], for which the “water solubility (in words)” value in data set [1] is listed as “(water soluble)”. The “Tox (Dead/treated mice)” value in data set [2] (4 mg/kg per os), in data set [2] (7 mg/kg per os) and in data set [2] (12 mg/kg per os) was 0/4 in each case. Besides, the “TVI % (tumor volume inhibition % in treated over control tumors)” value in data set [2] (4 mg/kg per os) turned out to be 69%; in data set [2] (7 mg/kg per os) it was 56%; in data set [2] (12 mg/kg per os), 68%. The “BWL % (body weight loss % induced by drug treatment)” value in data set [2] (12 mg/kg per os) is on record as 4%. In addition, in data set [3], it took 17 nM to reach half-maximal inhibition (IC50).
